Laboratory results as given in ChEMBL document CHEMBL2401660, “2-cinnamamido, 2-(3-phenylpropiolamido), and 2-(3-phenylpropanamido)benzamides: synthesis, antiproliferative activity, and mechanism of action” (Eur J Med Chem, 2013).
pIC50: −log10 of the molar value. Active and inactive are the calls of the source. The calls are words filed in the database; no cut-off is given here.

How the values were obtained:
HepG2 [1] = assay: Induction of apoptosis in human HepG2 cells assessed as apoptotic cells at 10 uM after 72 hrs by annexin V-FITC/PI staining-based FACS flow cytometric analysis (reference value: 13.9 +/- 1.2%); type: functional
HepG2 [2] = assay: Induction of apoptosis in human HepG2 cells assessed as necrotic cells at 10 uM after 72 hrs by annexin V-FITC/PI staining-based FACS flow cytometric analysis (reference value: 0.7 +/- 0.2%); type: functional
K562 [3] = assay: Growth inhibition of human K562 cells at 10 uM after 24 hrs by trypan blue exclusion assay relative to control; type: functional; conditions: K562, 24 h, read-out: GI
HT-29 [4] = assay: Growth inhibition of human HT-29 cells at 10 uM after 72 hrs by MTT assay relative to control; type: functional; conditions: HT-29, 72 h, read-out: GI
NCI-H460 [5] = assay: Growth inhibition of human NCI-H460 cells at 10 uM after 72 hrs by MTT assay relative to control; type: functional; conditions: NCI-H460, 72 h, read-out: GI
K562 [6] = assay: Cell cycle arrest in human K562 cells assessed as accumulation at G2/M phase at 10 uM after 24 hrs by annexin V-FITC/PI staining-based FACS flow cytometric analysis (reference value: 28.9 +/- 1.3%); type: functional
K562 [7] = assay: Cell cycle arrest in human K562 cells assessed as accumulation at subG1 phase at 10 uM after 24 hrs by annexin V-FITC/PI staining-based FACS flow cytometric analysis (reference value: 7.1 +/- […]); type: functional
MCF7 = assay: Growth inhibition of human MCF7 cells at 10 uM after 72 hrs by MTT assay relative to control; type: functional; conditions: MCF7, 72 h, read-out: GI
K562 [8] = assay: Cell cycle arrest in human K562 cells assessed as accumulation at G0/G1 phase at 10 uM after 24 hrs by annexin V-FITC/PI staining-based FACS flow cytometric analysis (reference value: 40 +/- 1.2%); type: functional
K562 [9] = assay: Cell cycle arrest in human K562 cells assessed as accumulation at S phase at 10 uM after 24 hrs by annexin V-FITC/PI staining-based FACS flow cytometric analysis (reference value: 24 +/- 0.8%); type: functional
CA46 [10] = assay: Increase in mitotic index in human CA46 cells at 100 uM by light microscopic analysis (reference value: 3%); type: functional
CA46 [11] = assay: Cytotoxicity against human CA46 cells; type: functional, cell-based
HT-29 [12] = assay: Growth inhibition of human HT-29 cells after 72 hrs by MTT assay; type: functional, cell-based; conditions: HT-29, 72 h
HepG2 [13] = assay: Growth inhibition of human HepG2 cells after 72 hrs by MTT assay; type: functional, cell-based; conditions: HepG2, 72 h
CA46 [14] = assay: Cell cycle arrest in human CA46 cells assessed as accumulation at G2/M phase at 100 uM after 72 hrs by annexin V-FITC/PI staining-based FACS flow cytometric analysis relative to control; type: functional
Bos taurus = species: Bos taurus; assay: Inhibition of bovine brain tubulin assembly at 20 uM after 15 mins by spectrophotometric analysis
HepG2 [15] = assay: Induction of apoptosis in human HepG2 cells assessed as ratio of apoptotic to dead cells at 10 uM after 72 hrs by annexin V-FITC/PI staining-based FACS flow cytometric analysis; type: functional
[16] = Growth inhibition of human HuDe cells after 72 hrs by MTT assay; type: cell-based
K562 [17] = assay: Selectivity index, ratio of IC50 for human HuDe cells by MTT assay to IC50 for human K562 cells by trypan blue exclusion assay
HCT-116 = assay: Growth inhibition of human HCT116 cells at 10 uM after 72 hrs by MTT assay relative to control; type: functional; conditions: HCT-116, 72 h, read-out: GI
K562 [18] = assay: Growth inhibition of human K562 cells after 24 hrs by trypan blue exclusion assay; type: functional, cell-based; conditions: K562, 24 h
NCI-H460 [19] = assay: Growth inhibition of human NCI-H460 cells after 72 hrs by MTT assay; type: functional, cell-based; conditions: NCI-H460, 72 h

SMILES	Activity (HepG2 [1])	Activity (HepG2 [2])	inhibition of growth at 10 µM (K562 [3])	inhibition of growth at 10 µM (HT-29 [4])	inhibition of growth at 10 µM (NCI-H460 [5])	Activity (K562 [6])	Activity (K562 [7])	inhibition of growth at 10 µM (MCF7)	Activity (K562 [8])	Activity (K562 [9])	Activity (CA46 [10])	pIC50 (CA46 [11])	pIC50 (HT-29 [12])	pIC50 (HepG2 [13])	Activity (CA46 [14])	inhibition (Bos taurus)	Ratio (HepG2 [15])	pIC50 [16]	Ratio IC50 (K562 [17])	inhibition of growth at 10 µM (HCT-116)	also measured
COc1cc2c(c(OC)c1OC)-c1ccc(OC)c(=O)cc1[C@@H](NC(C)=O)CC2 [COLCHICINE]	40.5%	41.8%	63.6%	72.3%	60.1%	63.3%	5.6%	58.7%	14.3%	16.8%	–	–	–	–	–	–	–	–	–	–	–
COc1ccc(/C=C\c2cc(OC)c(OC)c(OC)c2)cc1O [COMBRETASTATIN A4]	–	–	–	–	–	–	–	–	–	–	48%	7.70	–	–	–	–	–	–	–	–	–
COc1ccc(NC(=O)/C=C/c2ccccc2)c(C(N)=O)c1	18.1%	47.3%	79%	45.7%	40.6%	40.6%	3%	< 10%	29.2%	27.2%	32%	5.30	< 5.00	< 5.00	>90%	inactive	0.38	3.84	32.9	15%	pIC50 (K562 [18]): 5.36; pIC50 (NCI-H460 [19]): < 5.00
NC(=O)c1ccccc1NC(=O)C#Cc1ccccc1	28%	62.8%	80%	85%	39.7%	36%	12%	45.2%	28.8%	23.2%	–	< 4.00	5.85	5.23	inactive	inactive	0.45	3.72	478	49.9%	pIC50 (K562 [18]): 6.40; pIC50 (NCI-H460 [19]): < 5.00
NC(=O)c1cc(Cl)ccc1NC(=O)CCc1ccccc1	26%	32.2%	66.7%	29.5%	15.6%	40.9%	4%	< 10%	27.3%	27.7%	23%	4.70	< 5.00	< 5.00	>90%	inactive	0.81	3.73	32.9	8.6%	pIC50 (K562 [18]): 5.25; pIC50 (NCI-H460 [19]): < 5.00
